Measurements from PubChem BioAssay AID1259407 (Chemical Carcinogenesis Research Information System (CCRIS), 2018).
Active and inactive are the calls of the source. No rule for the calls is given here.

Test system: CCRIS mutagenicity, Ames/micronucleus/aberration tests
Assay: CCRIS mutagenicity studies
[1] = Test System: AMES SALMONELLA TYPHIMURIUM, Strain/Indicator: TA98, Metabolic Activation: NONE, Method: PREINCUBATION
[2] = Test System: AMES SALMONELLA TYPHIMURIUM, Strain/Indicator: TA100, Metabolic Activation: NONE, Method: PREINCUBATION
[3] = Test System: AMES SALMONELLA TYPHIMURIUM, Strain/Indicator: TA1535, Metabolic Activation: NONE, Method: PREINCUBATION
[4] = Test System: AMES SALMONELLA TYPHIMURIUM, Strain/Indicator: TA1537, Metabolic Activation: NONE, Method: PREINCUBATION
[5] = Test System: AMES SALMONELLA TYPHIMURIUM, Strain/Indicator: TA98, Metabolic Activation: RAT, LIVER, S-9, PCB, Method: PREINCUBATION
[6] = Test System: AMES SALMONELLA TYPHIMURIUM, Strain/Indicator: TA100, Metabolic Activation: RAT, LIVER, S-9, PCB, Method: PREINCUBATION
[7] = Test System: E. COLI, Strain/Indicator: WP2 UVRA, Metabolic Activation: NONE, Method: PREINCUBATION

In the case of `CC1(C)S[C@@H]2[C@H](NC(=O)COc3ccccc3)C(=O)N2[C@H]1C(=O)O`, the mutagenic call (Test System: AMES SALMONELLA TYPHIMURIUM, Strain/Indicator: TA98, Metabolic Activation: HAMSTER, LIVER, S-9, AROCLOR 1254, Method: PREINCUBATION) is reported as “inactive; negative”, the mutagenic call [1] is reported as “inactive; negative” and the mutagenic call (Test System: AMES SALMONELLA TYPHIMURIUM, Strain/Indicator: TA98, Metabolic Activation: RAT, LIVER, S-9, AROCLOR 1254, Method: PREINCUBATION) is reported as “inactive; negative”. The mutagenic call (Test System: AMES SALMONELLA TYPHIMURIUM, Strain/Indicator: TA100, Metabolic Activation: HAMSTER, LIVER, S-9, AROCLOR 1254, Method: PREINCUBATION) was “inactive; negative”, the mutagenic call [2] was “inactive; negative” and the mutagenic call (Test System: AMES SALMONELLA TYPHIMURIUM, Strain/Indicator: TA100, Metabolic Activation: RAT, LIVER, S-9, AROCLOR 1254, Method: PREINCUBATION) was “inactive; negative”. The mutagenic call (Test System: AMES SALMONELLA TYPHIMURIUM, Strain/Indicator: TA1535, Metabolic Activation: HAMSTER, LIVER, S-9, AROCLOR 1254, Method: PREINCUBATION) was “inactive; negative”, the mutagenic call [3] was “inactive; negative” and the mutagenic call (Test System: AMES SALMONELLA TYPHIMURIUM, Strain/Indicator: TA1535, Metabolic Activation: RAT, LIVER, S-9, AROCLOR 1254, Method: PREINCUBATION) was “inactive; negative”. The mutagenic call (Test System: AMES SALMONELLA TYPHIMURIUM, Strain/Indicator: TA1537, Metabolic Activation: HAMSTER, LIVER, S-9, AROCLOR 1254, Method: PREINCUBATION) was “inactive; negative”, the mutagenic call [4] was “inactive; negative” and the mutagenic call (Test System: AMES SALMONELLA TYPHIMURIUM, Strain/Indicator: TA1537, Metabolic Activation: RAT, LIVER, S-9, AROCLOR 1254, Method: PREINCUBATION) was “inactive; negative”. The mutagenic call (Test System: MOUSE LYMPHOMA, Strain/Indicator: L5178Y (TK+/TK-), Metabolic Activation: NONE, Method: SUSPENSION/PLATE) was “inactive; negative” and the mutagenic call (Test System: MOUSE LYMPHOMA, Strain/Indicator: L5178Y (TK+/TK-), Metabolic Activation: RAT, LIVER, S-9, Method: SUSPENSION/PLATE) was “active; positive”.

In the case of `Cl[Si](Cl)Cl`, the mutagenic call (Test System: Mouse lymphoma, Strain/Indicator: L5178Y (tk+/tk-), Metabolic Activation: None, Method: Suspension/plate) is reported as “inactive; negative” and the mutagenic call (Test System: Mouse lymphoma, Strain/Indicator: L5178Y (tk+/tk-), Metabolic Activation: Rat, Liver, S-9, Aroclor 1254, Method: Suspension/plate) is reported as “inactive; negative”.

In the case of `O=C(CBr)c1ccc(-c2ccccc2)cc1`, the mutagenic call [1] is reported as “inactive; negative”, the mutagenic call [5] is reported as “inactive; negative” and the mutagenic call [6] is reported as “inactive; negative”. For the same compound, the mutagenic call [7] was “inactive; negative”.

For `Nc1nc(-c2ccc([N+](=O)[O-])cc2)nc2c1ncn2[C@H]1C[C@H](O)[C@@H](CO)O1`, the mutagenic call (Test System: AMES SALMONELLA TYPHIMURIUM, Strain/Indicator: TA98(1,8-DNP), Metabolic Activation: NONE, Method: PREINCUBATION) was “active; positive”, the mutagenic call (Test System: AMES SALMONELLA TYPHIMURIUM, Strain/Indicator: TA98(1,8-DNP), Metabolic Activation: RAT, LIVER, S-9, PCB, Method: PREINCUBATION) was “active; positive” and the mutagenic call (Test System: AMES SALMONELLA TYPHIMURIUM, Strain/Indicator: TA98(NR), Metabolic Activation: NONE, Method: PREINCUBATION) was “active; positive”. For the same compound, the mutagenic call (Test System: AMES SALMONELLA TYPHIMURIUM, Strain/Indicator: TA98(NR), Metabolic Activation: RAT, LIVER, S-9, PCB, Method: PREINCUBATION) was “active; positive”, the mutagenic call [1] was “active; positive” and the mutagenic call [5] was “active; positive”. The mutagenic call (Test System: AMES SALMONELLA TYPHIMURIUM, Strain/Indicator: TA100(1,8-DNP), Metabolic Activation: NONE, Method: PREINCUBATION) was “active; positive”, the mutagenic call (Test System: AMES SALMONELLA TYPHIMURIUM, Strain/Indicator: TA100(NR), Metabolic Activation: NONE, Method: PREINCUBATION) was “active; positive” and the mutagenic call (Test System: AMES SALMONELLA TYPHIMURIUM, Strain/Indicator: TA100(NR), Metabolic Activation: RAT, LIVER, S-9, PCB, Method: PREINCUBATION) was “active; positive”. For the same compound, the mutagenic call [2] was “active; positive”, the mutagenic call [6] was “active; positive” and the mutagenic call (Test System: AMES SALMONELLA TYPHIMURIUM, Strain/Indicator: YG1020, Metabolic Activation: NONE, Method: PREINCUBATION) was “active; positive”. The mutagenic call (Test System: AMES SALMONELLA TYPHIMURIUM, Strain/Indicator: YG1020, Metabolic Activation: RAT, LIVER, S-9, PCB, Method: PREINCUBATION) was “active; positive”, the mutagenic call (Test System: AMES SALMONELLA TYPHIMURIUM, Strain/Indicator: YG1021, Metabolic Activation: NONE, Method: PREINCUBATION) was “active; positive” and the mutagenic call (Test System: AMES SALMONELLA TYPHIMURIUM, Strain/Indicator: YG1021, Metabolic Activation: RAT, LIVER, S-9, PCB, Method: PREINCUBATION) was “active; positive”. For the same compound, the mutagenic call (Test System: AMES SALMONELLA TYPHIMURIUM, Strain/Indicator: YG1024, Metabolic Activation: NONE, Method: PREINCUBATION) was “active; positive”, the mutagenic call (Test System: AMES SALMONELLA TYPHIMURIUM, Strain/Indicator: YG1024, Metabolic Activation: RAT, LIVER, S-9, PCB, Method: PREINCUBATION) was “active; positive” and the mutagenic call (Test System: AMES SALMONELLA TYPHIMURIUM, Strain/Indicator: YG1025, Metabolic Activation: NONE, Method: PREINCUBATION) was “active; positive”. For the same compound, the mutagenic call (Test System: AMES SALMONELLA TYPHIMURIUM, Strain/Indicator: YG1025, Metabolic Activation: RAT, LIVER, S-9, PCB, Method: PREINCUBATION) was “active; positive”, the mutagenic call (Test System: AMES SALMONELLA TYPHIMURIUM, Strain/Indicator: YG1026, Metabolic Activation: NONE, Method: PREINCUBATION) was “active; positive” and the mutagenic call (Test System: AMES SALMONELLA TYPHIMURIUM, Strain/Indicator: YG1026, Metabolic Activation: RAT, LIVER, S-9, PCB, Method: PREINCUBATION) was “active; positive”. For the same compound, the mutagenic call (Test System: AMES SALMONELLA TYPHIMURIUM, Strain/Indicator: YG1029, Metabolic Activation: NONE, Method: PREINCUBATION) was “active; positive” and the mutagenic call (Test System: AMES SALMONELLA TYPHIMURIUM, Strain/Indicator: YG1029, Metabolic Activation: RAT, LIVER, S-9, PCB, Method: PREINCUBATION) was “active; positive”.

For `CN(CCC#N)c1ccc(N=Nc2ccc3ncsc3c2)cc1`, the mutagenic call (Test System: AMES SALMONELLA TYPHIMURIUM, Strain/Indicator: TA98, Metabolic Activation: RAT, LIVER, S-9, AROCLOR, Method: PREINCUBATION) was “active; positive” and the mutagenic call (Test System: AMES SALMONELLA TYPHIMURIUM, Strain/Indicator: TA98, Metabolic Activation: RAT, LIVER, S-9, AROCLOR, Method: STANDARD PLATE) was “active; positive”.

`COc1cc(OC)c(Cl)c(-n2c(-c3ccccc3)cc(=O)c(C)c2-c2ccc(F)cc2)c1` was tested, and the mutagenic call [1] was “inactive; negative”, the mutagenic call (Test System: AMES SALMONELLA TYPHIMURIUM, Strain/Indicator: TA98, Metabolic Activation: S-9, Method: PREINCUBATION) was “inactive; negative” and the mutagenic call [2] was “inactive; negative”. For the same compound, the mutagenic call (Test System: AMES SALMONELLA TYPHIMURIUM, Strain/Indicator: TA100, Metabolic Activation: S-9, Method: PREINCUBATION) was “inactive; negative”, the mutagenic call (Test System: AMES SALMONELLA TYPHIMURIUM, Strain/Indicator: TA102, Metabolic Activation: NONE, Method: PREINCUBATION) was “inactive; negative” and the mutagenic call (Test System: AMES SALMONELLA TYPHIMURIUM, Strain/Indicator: TA102, Metabolic Activation: S-9, Method: PREINCUBATION) was “inactive; negative”. The mutagenic call [3] was “inactive; negative”, the mutagenic call (Test System: AMES SALMONELLA TYPHIMURIUM, Strain/Indicator: TA1535, Metabolic Activation: S-9, Method: PREINCUBATION) was “inactive; negative” and the mutagenic call [4] was “inactive; negative”. For the same compound, the mutagenic call (Test System: AMES SALMONELLA TYPHIMURIUM, Strain/Indicator: TA1537, Metabolic Activation: S-9, Method: PREINCUBATION) was “inactive; negative”, the mutagenic call [7] was “inactive; negative” and the mutagenic call (Test System: E. COLI, Strain/Indicator: WP2 UVRA, Metabolic Activation: S-9, Method: PREINCUBATION) was “inactive; negative”.

In the case of `Oc1ccc2sc3ccccc3c2c1`, the mutagenic call (Test System: CHINESE HAMSTER OVARY, Strain/Indicator: CHO-K1-BH4 (HGPRT)/6-THIOGUANINE, Metabolic Activation: RAT, LIVER, S-9, AROCLOR (4%)) is reported as “active; positive”.

`O=[N+]([O-])c1cccc(-c2ccccc2)c1O` was tested, and the mutagenic call [1] was “inactive; negative”.

With `CC(=O)CC1CCC(=O)/C=C\C(=O)OC(CC(C)=O)CCC(=O)/C=C\C(=O)O1` (stereo unspecified) the mutagenic call (Test System: CHINESE HAMSTER V-79, Strain/Indicator: V-79 (HPRT)/6-THIOGUANINE, Metabolic Activation: NONE) was “active; positive” and the mutagenic call (Test System: CHINESE HAMSTER V-79, Strain/Indicator: V-79 (HPRT)/6-THIOGUANINE, Metabolic Activation: RAT, LIVER, S-9, 3-METHYLCHOLANTHRENE) was “active; positive”.
